The text below walks through data of article PMC12163485 (Drug Metabolism and Disposition, 2025).

The target in one series is T1, human OCTN2 (hOCTN2) (Homo sapiens, UniProt O76082).
T1 construct: expressed in transfected cells
T1 sequence (O76082 1-557): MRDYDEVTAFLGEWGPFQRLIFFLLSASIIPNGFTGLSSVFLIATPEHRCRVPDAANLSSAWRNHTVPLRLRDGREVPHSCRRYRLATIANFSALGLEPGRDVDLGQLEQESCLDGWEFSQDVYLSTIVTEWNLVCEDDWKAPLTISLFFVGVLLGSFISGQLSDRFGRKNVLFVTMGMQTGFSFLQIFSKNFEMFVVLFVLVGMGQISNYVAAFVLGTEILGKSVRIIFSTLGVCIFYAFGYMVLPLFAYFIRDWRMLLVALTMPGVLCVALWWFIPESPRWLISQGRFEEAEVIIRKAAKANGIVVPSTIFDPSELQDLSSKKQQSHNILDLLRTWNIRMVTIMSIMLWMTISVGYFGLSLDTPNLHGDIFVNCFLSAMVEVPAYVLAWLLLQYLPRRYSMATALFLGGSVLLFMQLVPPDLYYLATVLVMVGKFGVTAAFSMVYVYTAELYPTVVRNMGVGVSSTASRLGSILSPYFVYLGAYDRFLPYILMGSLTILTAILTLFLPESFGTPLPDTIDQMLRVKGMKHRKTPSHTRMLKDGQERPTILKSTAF
As to the kind of experiment: Uptake of the extended cocktail by HEK293 cells overexpressing hOCTN2. Type of series: in vitro ADME. The conditions noted are these: Fig. 6.

For a further series, the target named is T2, human OCTN1 (hOCTN1) (Homo sapiens, UniProt Q9H015).
T2 construct: expressed in transfected cells
T2 sequence (Q9H015 1-551): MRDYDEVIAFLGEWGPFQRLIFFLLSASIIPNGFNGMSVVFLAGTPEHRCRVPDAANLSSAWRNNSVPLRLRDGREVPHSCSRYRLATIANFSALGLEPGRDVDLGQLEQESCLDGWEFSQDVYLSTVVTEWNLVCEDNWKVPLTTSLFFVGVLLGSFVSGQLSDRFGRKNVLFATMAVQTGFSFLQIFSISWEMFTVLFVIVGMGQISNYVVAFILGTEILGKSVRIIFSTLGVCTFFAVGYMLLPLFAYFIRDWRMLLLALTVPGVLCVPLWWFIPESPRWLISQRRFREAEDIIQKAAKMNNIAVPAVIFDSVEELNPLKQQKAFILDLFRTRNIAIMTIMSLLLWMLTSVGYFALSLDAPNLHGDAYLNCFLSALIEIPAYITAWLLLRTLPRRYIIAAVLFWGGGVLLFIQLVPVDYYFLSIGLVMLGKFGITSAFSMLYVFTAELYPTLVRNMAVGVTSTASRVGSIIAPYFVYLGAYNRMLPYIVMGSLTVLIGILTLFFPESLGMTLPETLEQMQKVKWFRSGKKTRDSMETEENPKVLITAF
The series can be described thus: Uptake of the extended cocktail by HEK293 cells overexpressing hOCTN1. Type of series: in vitro ADME. The conditions noted are these: Fig. 6.

The conditions of series [1]: cited from earlier work; for cmax = Imax: dose and route as in Supplemental Table 4, ref Hardman, 2018, fenoterol Tzvetkov et al; for cmax = Imax / fraction unbound: ipratropium Zhang et al, 2023; for fraction unbound: fraction unbound in plasma, ref Hardman, 2018, Lombardo et al (2018), fenoterol Tzvetkov et al; for tmax: p.o., ref Hardman, 2018.
Series [2] concerns the target T3, mouse OCT1 (Mus musculus, UniProt O08966).
T3 sequence (O08966 1-556): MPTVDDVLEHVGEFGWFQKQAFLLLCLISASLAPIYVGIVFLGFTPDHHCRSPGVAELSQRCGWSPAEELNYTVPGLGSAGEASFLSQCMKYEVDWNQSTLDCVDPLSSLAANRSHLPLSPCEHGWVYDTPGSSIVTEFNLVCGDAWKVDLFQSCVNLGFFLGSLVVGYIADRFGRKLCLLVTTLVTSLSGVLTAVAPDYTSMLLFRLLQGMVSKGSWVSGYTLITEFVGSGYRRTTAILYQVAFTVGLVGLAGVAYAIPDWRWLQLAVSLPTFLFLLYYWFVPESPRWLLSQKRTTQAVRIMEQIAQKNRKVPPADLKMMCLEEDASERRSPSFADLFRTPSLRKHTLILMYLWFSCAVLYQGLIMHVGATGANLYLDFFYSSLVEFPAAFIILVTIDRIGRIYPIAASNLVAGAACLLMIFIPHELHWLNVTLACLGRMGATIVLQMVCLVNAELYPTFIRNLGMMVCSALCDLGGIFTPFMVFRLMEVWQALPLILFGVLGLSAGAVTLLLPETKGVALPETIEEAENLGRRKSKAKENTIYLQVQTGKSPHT
As for the experimental part:
Therefore, the calculation method used for hepatic uptake transporters such as organic anion transporting polypeptide (OATP) 1B1 and OATP1B3 was also applied for OCT1.
(§1) Ka was calculated manually based on available pharmacokinetic parameters.

The subject of series [3] is OCT1. The conditions noted are these: read-out: inhibitory potency for metformin uptake via OCT1; substrate metformin; ref Ahlin et al, 2011; Panfen et al, 2019; cited from earlier work.
Series [4] deals with T4, human OCT1 (hOCT1) (Homo sapiens, UniProt O15245).
T4 sequence (O15245 1-554): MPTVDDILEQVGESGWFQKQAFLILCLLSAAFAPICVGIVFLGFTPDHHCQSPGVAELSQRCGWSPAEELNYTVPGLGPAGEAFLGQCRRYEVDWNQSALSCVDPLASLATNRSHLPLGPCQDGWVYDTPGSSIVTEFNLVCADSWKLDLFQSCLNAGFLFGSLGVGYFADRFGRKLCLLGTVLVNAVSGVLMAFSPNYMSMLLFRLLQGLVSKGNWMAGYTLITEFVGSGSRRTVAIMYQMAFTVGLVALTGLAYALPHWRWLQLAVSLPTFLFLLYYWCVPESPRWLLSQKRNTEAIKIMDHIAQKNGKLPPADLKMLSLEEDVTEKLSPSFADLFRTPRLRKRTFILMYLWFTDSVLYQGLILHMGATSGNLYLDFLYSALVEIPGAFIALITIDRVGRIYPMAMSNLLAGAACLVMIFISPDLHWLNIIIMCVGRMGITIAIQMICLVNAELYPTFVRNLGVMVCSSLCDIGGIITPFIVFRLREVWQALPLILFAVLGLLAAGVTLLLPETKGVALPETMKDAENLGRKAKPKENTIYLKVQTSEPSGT
The series can be described thus: Inhibition of OCT1-mediated uptake of the cocktail substrates in HEK293 cells overexpressing human OCT1. To be noted: for IC50: human OCT1, mean ± SD.

Series [5] in a line: Pharmacokinetic parameters used for estimating the potential for DDIs. Type of series: in vivo, human. To be noted: for Imax, portal: Iin,max=Imax+Fa×ka×D/Qh, Qh 97 L/h, Fa 1, Imax for fenoterol and ipratropium; for ka: first-order absorption rate constant, calculated manually from available pharmacokinetic parameters. On the procedure:
as §1

The test system of a further series is mOct1. Details: method as in ref column References of Table 2 (Morse et al, 2020; Jensen et al, 2020; Meyer et al, 2022). The conditions noted are these: literature values; References of Table 2 (Morse et al, 2020; Jensen et al, 2020; Meyer et al, 2022); cited from earlier work.
Series [6] has as its target T5, OCT1 (Homo sapiens, UniProt O15245).
T5 sequence (O15245 1-554): T4 sequence (O15245 1-554)
The series can be described thus: Uptake of the cocktail by HEK293 cells overexpressing human OCT1. As for the experimental part: (§2) Significance was calculated using Mann–Whitney U test. n = 5–8 independent experiments.

Series [7] deals with T4, human OCT1 (hOCT1). Details: expressed in transfected cells; empty vector control pcDNA5; method as in ref column References of Table 2 (Tzvetkov et al, 2018; Morse et al, 2020; Jensen et al, 2020; Meyer et al, 2019, 2022; Wittern et al, 2024 and own unpublished data; Elsby et al, 2017). The conditions noted are these: literature values; References of Table 2 (Tzvetkov et al, 2018; Morse et al, 2020; Jensen et al, 2020; Meyer et al, 2019, 2022; Wittern et al, 2024 and own unpublished data; Elsby et al, 2017); cited from earlier work.

Series [8] addresses T4, human OCT1 (hOCT1).
The target of the next series is T6, human OCT2 (hOCT2) (Homo sapiens, UniProt O15244).
T6 construct: expressed in transfected cells
T6 sequence (O15244 1-555): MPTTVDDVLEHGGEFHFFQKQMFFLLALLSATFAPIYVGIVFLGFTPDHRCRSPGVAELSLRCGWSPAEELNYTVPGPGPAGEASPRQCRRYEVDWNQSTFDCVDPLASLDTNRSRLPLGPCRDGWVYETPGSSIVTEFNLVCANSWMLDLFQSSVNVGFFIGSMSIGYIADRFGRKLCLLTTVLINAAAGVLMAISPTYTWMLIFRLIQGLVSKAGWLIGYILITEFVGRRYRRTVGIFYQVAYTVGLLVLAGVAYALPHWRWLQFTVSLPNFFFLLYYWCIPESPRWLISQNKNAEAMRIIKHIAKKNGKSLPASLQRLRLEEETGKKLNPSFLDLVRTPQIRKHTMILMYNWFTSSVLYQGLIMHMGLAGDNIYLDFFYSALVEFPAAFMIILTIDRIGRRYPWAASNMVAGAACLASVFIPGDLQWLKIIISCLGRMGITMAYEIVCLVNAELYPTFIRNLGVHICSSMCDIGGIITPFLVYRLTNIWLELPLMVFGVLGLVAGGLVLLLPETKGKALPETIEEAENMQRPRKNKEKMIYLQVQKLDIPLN
As to the kind of experiment: Uptake of the extended cocktail by HEK293 cells overexpressing hOCT2. The conditions noted are these: Fig. 6. Type of series: in vitro ADME.

Series [9] concerns the target T3, mouse OCT1. As to the kind of experiment: Uptake of the cocktail by HEK293 cells overexpressing mouse Oct1. The conditions noted are these: fold change to the negative control, n = 12. On the procedure:
as §2

In series [10] the target is T5, OCT1. As to the kind of experiment: DDI risk R calculated from IC50 at human OCT1. The conditions noted are these: R=1+fup×Iin,max/IC50, cutoff R ≥ 1.1.

Where “and” joins values, the source holds several entries; their conditions need not be identical. Equal entries are not always repeated. Where two headings read alike, the source gives them in different places.

Turning to `C[N+](C)(C)C[C@H](O)CC(=O)[O-]` [L-carnitine], the “transport by OCTN2” value on human OCTN2 (hOCTN2) is “transported only L-carnitine”. At human OCTN1 (hOCTN1), the “transport by OCTN1” value is “transported both L-carnitine and L-ergothioneine”.
A word on the fraction unbound: it is free concentration divided by total concentration. `C=C[C@H]1C[N@@]2CC[C@H]1C[C@@H]2[C@@H](O)c1ccnc2ccc(OC)cc12` [Quinidine, quinidine]: in series [1], the “cmax = Imax” value is listed as 1300 ng/mL, the fraction unbound is 0.13 and the tmax is recorded as 2.00 h. Moreover, at mouse OCT1 [2], the “DDI risk R, victim drug trospium” value is recorded as 1.23. In the series with OCT1 [3], the IC50 was 7.7 µM. The “zolmitriptan uptake inhibited more potently than sumatriptan uptake” value at human OCT1 (hOCT1) [4] worked out at 2.9 fold. For the same compound, in series [5], the “Imax, portal” value is recorded as 6908 ng/mL and the ka was 1.36 h⁻¹.
For orientation: Km means the concentration of substrate that gives half-maximal velocity. For the compound `O=C(O[C@H]1C[C@H]2CC[C@@H](C1)[N+]21CCCC1)C(O)(c1ccccc1)c1ccccc1` [Trospium, trospium], in series [1], the “cmax = Imax” value was 5.20 ng/mL, the free fraction (fraction unbound) was 0.33 and the tmax was 6.7 h. In addition, the t1/2 in series [1] (ref Hardman, 2018, fenoterol Tzvetkov et al) is 9.9 h. Moreover, the Km in the series with mOct1 was 1810 nM. The “human OCT1 uptake [fold change to pcDNA5]” value at OCT1 [6] (cocktail, fold change to the negative control, n = 12) is 28.6 fold change to pcDNA5. Also, at OCT1 [6] (extended cocktail, Fig. 6), the “transport by OCT1” value is “transported only by OCT1 and OCT2”. Moreover, on human OCT1 (hOCT1) [7], the Km is 16.1 µM. The compound also came in with an IC50 at human OCT1 (hOCT1) [4] (IC50 for inhibition of fenoterol uptake, substrate (victim) fenoterol 0.5 μM in cocktail) of 15.8 ± 1.87 µM. The compound further returned an IC50 on human OCT1 (hOCT1) [4] (IC50 for inhibition of ipratropium uptake, substrate (victim) ipratropium 0.5 μM in cocktail) of 9.37 ± 0.83 µM. The same compound yielded an IC50 at human OCT1 (hOCT1) [4] (IC50 for inhibition of methylnaltrexone uptake, substrate (victim) methylnaltrexone 1 μM in cocktail) of 14.7 ± 1.95 µM. The compound also had an IC50 against human OCT1 (hOCT1) [4] (IC50 for inhibition of sumatriptan uptake, substrate (victim) sumatriptan 0.5 μM in cocktail) of 16.8 ± 2.03 µM. In addition, the IC50 on human OCT1 (hOCT1) [4] (IC50 for inhibition of zolmitriptan uptake, substrate (victim) zolmitriptan 0.5 μM in cocktail) turned out to be 10 ± 1.59 µM. Besides, in series [5], the “Imax, portal” value is given as 89.63 ng/mL and the ka was 0.273 h⁻¹. For the same compound, in [5] (human, in vivo, po, read-out: ke (converted)), the k el was 1.94e-05 s⁻¹. The “I max, portal, u” value in series [5] (unbound maximum inhibitor concentration at the inlet of the liver) is recorded as 0.08 µM. For the same compound, the IC50 at human OCT1 (hOCT1) [8] was 12.4 µM and 8.14 µM. On human OCT2 (hOCT2), the “transport by OCT2” value is “transported only by OCT1 and OCT2”. Also, the “mouse Oct1 uptake [fold change to pcDNA5]” value at mouse OCT1 [9] is reported as 26.9 fold change to pcDNA5. Further, on OCT1 [10], the “DDI risk R, victim drug fenoterol” value is reported as 1.00; the “DDI risk R, victim drug ipratropium” value is given as 1.01; the “DDI risk R, victim drug metformin” value is 1.01; the “DDI risk R, victim drug methylnaltrexone” value is recorded as 1.01. Further, at OCT1 [10], the “DDI risk R, victim drug salbutamol” value is given as 1.01; the “DDI risk R, victim drug sumatriptan” value is 1.00; the “DDI risk R, victim drug zolmitriptan” value was 1.01.
